Data: patent US11479554B2, “Pharmaceutical compositions comprising perillyl alcohol derivatives” (NeOnc Technologies, Inc., priority 2015, dated 2022)

Key:
[1] = system: MGMT negative human melanoma cells A2058; assay: Colony formation assay (cytotoxicity), A2058 melanoma cells; type: cell-based; conditions: 48-hour drug incubation, colonies counted 7-10 days later, compared at similar concentrations (FIG. 1)
Method: (§1) The cytotoxicity of TMZ, POH-TMZ, and POH-TMZ-Linoleate were studied by colony formation assay of A2058 and A375 melanoma cells. A2058 and A375 cells were harvested and made single cell suspension in culture medium (DMEM with 10% FBS, 1% Penicillin/Streptomycin). 500 cells/well were seeded into 12-well plate (tissue culture treated, from Olympus Plastics) pre-warmed culture medium at 37° C. The cells were cultured overnight for attachment to the plate. Then the medium was removed and replaced with fresh medium containing varied concentrations of drugs (or no drugs as a control) for further 48-hour incubation. After 48 hours treatment, the medium was aspirated and replaced with normal culture medium. 7-10 days later, the culture medium was aspirated, and the colonies formed inside the wells were washed with cold PBS once. Then the colonies were stained with 0.1% methylene blue (in methanol) for 4-6 hours. The plates were then washed and the formed colonies counted (the colonies formed with 20 cells or more are countable).

[2] = system: MGMT positive human melanoma cells A375; assay: Colony formation assay (cytotoxicity), A375 melanoma cells; type: cell-based; conditions: 48-hour drug incubation, colonies counted 7-10 days later, compared at similar concentrations (FIG. 2)
Method: as §1

[3] = system: human melanoma tumor cells, A2058; assay: In vivo tumor growth inhibition, subcutaneous A2058 melanoma in nude mice, topical treatment, with CD31 histology
Method: Inhibition of tumor growth by POH-TMZ-linoleate was studied in nude mice. Nude mice were injected subcutaneously with 2×10^6 human melanoma tumor cells, A2058. The melanoma cells were allowed to form a palpable nodule in the mice. When the tumor size reached 1.0-1.5 cm in diameter in any dimension, a control mouse was treated topically with a vehicle (10% DMSO in 45% Glycerol+45% ethanol), and a test mouse was topically treated with TPL (50 mM TPL working solution was reconstituted in 45% Glycerol+45% Ethanol, and 100 μl (25 mg/kg) was applied topically on the skin which covers the whole tumor). The control mouse and the test mouse were both treated twice daily for 14 days.
After the 14 days of treatment the mice were sacrificed, the tumor removed, sectioned at 8 μm, fixed with acetone, and stored at −20° C. For histological analysis, the tissues were blocked with sea block and stained with the primary antibody Rat anti Mouse (1:50) overnight following which secondary biotinylated goat anti rat antibody (1:200) was added for 45 minutes, washed and avidin biotin complex, ABC elite was added for 30 minutes, washed and then stained with AEC and counter stained with hematoxylin. Such staining was used to evaluate the endothelial marker CD31 expression, which is representative of the amounts of blood vessels in the tumor. Staining images were captured at 40× under optical microscope. […] The histological analysis results were further quantified using ImageJ software by measuring the average area of staining in the tumors of the test mouse after TPL treatment and the control mouse, where the average area of staining was calculated based on the red precipitate of the stain in μm^2. From FIG. 5, it can be seen that the average area of staining is much smaller in the tumor of the test mouse than that in the control mouse.

Row | SMILES | colonies count (effectiveness in killing the melanoma cells) [1] | colonies count (effectiveness in killing the melanoma cells) [2] | tumor angiogenesis (CD31 staining, visual inspection) versus vehicle-treated mouse ([3]; after 14 days of topical treatment, FIGS. 4D-4F vs 4A-4C) | average area of CD31 staining in the tumor versus control mouse ([3]; after 14 days of topical treatment, ImageJ quantification, FIG. 5) | vascularization of the tumor compared with the tumor before the treatment ([3]; topical 25 mg/kg twice daily for 14 days, FIG. 3B vs FIG. 3A) | appearance of the tumor surface after treatment ([3]; topical 50 mM, 100 μl (25 mg/kg) twice daily for 14 days, FIG. 3B)
1 | C=C(C)[C@@H]1CC=C(COC(=O)NC(=O)c2ncn3c(=O)n(C)nnc23)CC1 [POH-TMZ, reference compound] | more effective than TMZ | more effective than TMZ | – | – | – | –
2 | C=C(C)[C@@H]1CC=C(COC(=O)N(C(=O)CCCCCCC/C=C\C/C=C\CCCCC)C(=O)c2ncn3c(=O)n(C)nnc23)CC1 [POH-TMZ-linoleate, (3-Methyl-4-oxo-3,4-dihydro-imidazo[5,1-d][1,2,3,5]tetrazine-8-carbonyl)-octadeca-9,12-dienoyl-carbamic acid 4-isopropenyl-cyclohex-1-enylmethyl ester] | more effective in killing the melanoma cells than POH-TMZ | more effective in killing the melanoma cells than POH-TMZ | much lower | much smaller | reduced vascularization | developed a hard surface
